Like-named read-outs stand apart in the source and are kept apart here.
Experiments:
HeLa [1] = conditions: cited from earlier work
tubulin = conditions: cited from earlier work
Bovine brain tubulin [2] = assay: Inhibition of tubulin polymerization; assay type: biochemical; conditions: for IC50: tubulin at 10 μM, read-out: Tubulin Assembly IC50 ± SD
Method: (§1) Bovine brain tubulin was purified as described previously. To evaluate the effects of the compounds on tubulin assembly in vitro [35], varying concentrations were preincubated with 10 μM tubulin in 0.8 M monosodium glutamate (pH 6.6) at 30 °C and the reaction mixtures then cooled to 0 °C. After addition of GTP, the mixtures were transferred to 0 °C cuvettes in Beckman Coulter (Brea, CA, USA) DU-7400/DU-7500 recording spectrophotometers equipped with electronic temperature controllers and warmed to 30 °C, and the assembly of tubulin was observed turbidimetrically. […] Inhibition of colchicine binding to tubulin was measured as described before, except that the reaction mixtures contained 0.5 μM tubulin and 5 μM each of [^3H]colchicine and test compound. Only one DEAE-cellulose filter was used per sample, and filtration was by gravity.

[3] = system: A549, MDA-MB-231, HeLa, HT-29 and Jurkat cancer cell lines; assay: Antiproliferative activity over the panel of cancer cell lines; assay type: cell-based, human; conditions: for fold reduction in potency (vs 7y): MDA-MB-231 and HT-29 cells
Method: (§2) Colon adenocarcinoma (HT-29) and T-cell leukemia (Jurkat) cells were grown in RPMI-1640 medium (Gibco, Milano, Italy). Promyelocytic leukemia cells (HL-60), non-small cell lung carcinoma (A549), cervix carcinoma (HeLa) and breast adenocarcinoma (MDA-MB-231) cells were grown in DMEM medium (Gibco, Milano, Italy). Both media were supplemented with 115 units/mL of penicillin G (Gibco, Milano, Italy), 115 μg/mL of streptomycin (Invitrogen, Milano, Italy) and 10% fetal bovine serum (Invitrogen, Milano, Italy). All the cell lines used were purchased from the American Type Culture Collection (ATCC, Manassas, VA, USA). Stock solutions (10 mM) of the compounds were obtained by dissolving them in DMSO.
(§3) The cells were seeded in 96-well plates at the appropriate density for each cell line. After 24 h, the cells were treated by performing serial 5-fold dilutions of the tested compounds starting from a concentration of 10 μM. All experimental conditions were tested in triplicate for statistical analysis. The plates were incubated for 72 h at 37 °C in a humidified 5% CO2 atmosphere. At the end of the incubation period, 10 μL of 100 μg/mL resazurin solution was added to each well; then, the plate was re-incubated for 3–4 h. The fluorescence of the wells in each plate was monitored using a Spark 10 M spectrophotometer (Tecan Group Ltd., Mannedorf, Switzerland) with a 535 nm excitation wavelength and a 600 nm emission wavelength.

Jurkat = assay: Antiproliferative assay (resazurin, 72 h); assay type: cell-based, human; conditions: for IC50: Homo sapiens, Jurkat, mean ± SE, 72 h; for fold increase in activity relative to 7ad: Jurkat cells
Method: as §2, §3

MDA-MB-231 = assay: Antiproliferative assay (resazurin, 72 h); assay type: cell-based, human; conditions: for IC50: Homo sapiens, MDA-MB-231, mean ± SE, 72 h
Method: as §2, §3

A549 = assay: Antiproliferative assay (resazurin, 72 h); assay type: cell-based, human; conditions: Homo sapiens
Method: as §2, §3

HT-29 = assay: Antiproliferative assay (resazurin, 72 h); assay type: cell-based, human; conditions: Homo sapiens, HT-29, mean ± SE, 72 h
Method: as §2, §3

HeLa [4] = assay: Antiproliferative assay (resazurin, 72 h); assay type: cell-based, human; conditions: Homo sapiens, HeLa
Method: as §2, §3

Bovine brain tubulin [5] = assay: Inhibition of [3H]colchicine binding to tubulin; conditions: tubulin 0.5 µM, [3H]colchicine 5 µM, compound 5 µM
Method: as §1

[6] = Homo sapiens, all five lines, read-out: IC50 values against all five lines
[7] = Homo sapiens, range over the five tumor lines, read-out: IC50 values, range over the cell lines

IC50 (Bovine brain tubulin [2]) [µM] | melting point [°C] | IC50 [3, 6] [µM] | IC50 [3, 7] [µM] | IC50 (Jurkat; Table 1) [µM] | IC50 (MDA-MB-231; Table 1) [µM] | IC50 (A549; A549, Table 1, mean ± SE) [µM] | IC50 (HT-29; Table 1) [µM] | IC50 (HeLa [4]; Table 1, mean ± SE) [µM] | Colchicine Binding % Inhibition ± SD (Bovine brain tubulin [5]) [%] | IC50 (Jurkat; Table 2) [µM] | IC50 (MDA-MB-231; Table 2) [µM] | IC50 (A549; A549, Table 2, mean ± SE) [µM] | IC50 (HT-29; Table 2) [µM] | IC50 (HeLa [4]; Table 2, mean ± SE) [µM] | Compound | other results
 |  |  |  |  |  |  |  |  |  |  |  |  |  |  | COc1ccc(-c2nc3nc(C)c(C(C)=O)c(-c4cc(OC)c(OC)c(OC)c4)n3n2)cc1O [Compound 6] | IC50 (HeLa [1]): 0.06 µM; fold more powerful than CA-4, tubulin polymerization (tubulin): 3 fold
0.39 ± 0.06 | 140 to 142 | < 1 | 0.031 to 0.323 | 0.32 ± 0.019 | 0.19 ± 0.02 | 0.11 ± 0.022 | 0.054 ± 0.01 | 0.031 ± 0.01 | 30 ± 0.3 |  |  |  |  |  | COc1cc(Nc2cc(C)nc3nc(NCc4ccc(Cl)cc4)nn23)cc(OC)c1OC [Compound 7n, N^2-(4-Chlorobenzyl)-5-methyl-N^7-(3,4,5-trimethoxyphenyl)-[1,2,4]triazolo [1,5-a]pyrimidine-2,7-diamine] | fold increase in antiproliferative activity vs 7l ([3]; four of the five cell lines): 17–60 fold; fold reduction in activity vs 7l (MDA-MB-231; MDA-MB-231 cells): 3 fold
0.66 ± 0.1 | 146 to 148 | < 1 | 0.06 to 0.427 | 0.43 ± 0.001 | 0.301 ± 0.04 | 0.42 ± 0.07 | 0.11 ± 0.02 | 0.06 ± 0.01 | 27 ± 3 |  |  |  |  |  | COc1cc(Nc2cc(C)nc3nc(NCc4ccc(C)cc4)nn23)cc(OC)c1OC [Compound 7p, 5-Methyl-N2-(4-methylbenzyl)-N7-(3,4,5-trimethoxyphenyl)-[1,2,4]triazolo [1,5-a]pyrimidine-2,7-diamine] | fold more potent than 7g ([3]; all cancer cell lines): 2–9 fold; fold less active than 7n ([3]; cell lines other than Jurkat): 2–4 fold; IC50 ([3]; range over the five tumor lines, read-out: IC50 values, range over the cell lines): 0.06 to 0.42 µM
 | 174 to 176 |  |  | 0.96 ± 0.06 | 0.56 ± 0.03 | 1.28 ± 0.13 | 0.59 ± 0.26 | 0.52 ± 0.02 |  |  |  |  |  |  | COc1cc(Nc2cc(C)nc3nc(NCc4ccc(C(F)(F)F)cc4)nn23)cc(OC)c1OC [Compound 7w, 5-Methyl-N^2-(4-(trifluoromethyl)benzyl)-N^7-(3,4,5-trimethoxyphenyl)-[1,2,4]triazolo [1,5-a]pyrimidine-2,7-diamine] | IC50 ([3]; Homo sapiens, four of the five cell lines, read-out: IC50 values against four of the five cell lines): < 1 µM
1 ± 0.2 | 190 to 192 | < 1 | 0.11 to 0.78 | 0.78 ± 0.09 | 0.3 ± 0.02 | 0.66 ± 0.03 | 0.17 ± 0.02 | 0.11 ± 0.01 | 19 ± 05 |  |  |  |  |  | COc1cc(Nc2cc(C)nc3nc(NCc4ccc5c(c4)OCO5)nn23)cc(OC)c1OC [Compound 7y, N^2-(Benzo[d][1,3]dioxol-5-ylmethyl)-5-methyl-N^7-(3,4,5-trimethoxyphenyl)-[1,2,4]triazolo [1,5-a]pyrimidine-2,7-diamine] | fold less active than CA-4, tubulin polymerization (Bovine brain tubulin [2]): 1.5 fold; fold increase in activity vs 7i ([3]; all five cell lines): 6–28 fold
 | 178 to 180 |  |  |  |  |  |  |  |  | 0.29 ± 0.06 | 0.8 ± 0.26 | 0.3 ± 0.06 | 0.22 ± 0.04 | 0.19 ± 0.06 | Cc1ccc(CNc2nc3nc(C)cc(Nc4ccc(F)c(Cl)c4)n3n2)cc1 [Compound 8d, N^7-(3-Chloro-4-fluorophenyl)-N^2-(4-methylbenzyl)-5-methyl-[1,2,4]triazolo [1,5-a]pyrimidine-2,7-diamine] | fold reduction in activity vs 7p ([3]; all cell lines): 1.5–3 fold
 | 186 to 188 |  |  |  |  |  |  |  |  | 0.98 ± 0.06 | 0.7 ± 0.16 | 0.44 ± 0.05 | 0.3 ± 0.03 | 0.16 ± 0.09 | Cc1cc(Nc2ccc(F)c(Cl)c2)n2nc(NCc3ccc4c(c3)OCO4)nc2n1 [Compound 8f, N^2-(Benzo[d][1,3]dioxol-5-ylmethyl)-N^7-(3-chloro-4-fluorophenyl)-5-methyl-[1,2,4]triazolo [1,5-a]pyrimidine-2,7-diamine] | fold reduction in potency (vs 7y) [3]: 2–3 fold; fold increase in activity relative to 7ad (Jurkat): 3-4 fold
 | 168 to 170 |  |  |  |  |  |  |  |  | 0.2 ± 0.05 | 0.6 ± 0.21 | 0.65 ± 0.28 | 0.26 ± 0.1 | 0.16 ± 0.07 | Cc1cc(Nc2ccc(F)cc2)n2nc(NCc3ccc4c(c3)OCO4)nc2n1 [Compound 8g, N^2-(Benzo[d][1,3]dioxol-5-ylmethyl)-N^7-(4-fluorophenyl)-5-methyl-[1,2,4]triazolo [1,5-a]pyrimidine-2,7-diamine] | fold reduction in potency (vs 7y) [3]: 2–3 fold; fold increase in activity relative to 7ad (Jurkat): 3-4 fold

— PMC9230136 (Pharmaceutics, 2022)
